Measured values: publication PMC2714906 (Endocrine, 2009)
Entries after “also recorded” stand apart in the source; their conditions may differ.

How the values were obtained:
[1] = test system: sensory neuron-specific receptor (SNSR1); conditions: ref [65], [66]; cited from earlier work
[2] = IV peptide MAP and HR cardiovascular responses in urethane-anesthetized rats; assay type: in vivo, rat (Sprague Dawley); conditions: for Cardiovascular response (MAP and HR), in words: IV γ-MSH 15 nmol or NPY 5 nmol; for Cardiovascular response (MAP and HR), in words / Increase in MAP: rats; for Increase in MAP: IV, compare Fig. 5a with Fig. 4b
[3] = test system: rat Y1 receptor; experiment: Rat Y1 receptor binding, competition with 125I-pPYY; conditions: competition with iodinated PYY; CHO cells expressing rat Y1 receptor
[4] = cited from earlier work
[5] = ref [8], cited from earlier work
[6] = test system: Y1 receptor; assay type: cell-based; conditions: 50 nM, HEK tsA201 cells expressing Y1 receptor and N-type VDCC; for Reduction of IBa (N-type VDCC barium current): whole-cell, 22°C, pH 7.20
[7] = test system: NPFF receptors; conditions: ref [16]–[19]; cited from earlier work
[8] = test system: IV γ-MSH cardiovascular response; experiment: BIBO3304 effect on IV γ-MSH and γ-MSH6–12 cardiovascular responses; assay type: in vivo, rat (Sprague Dawley)
[9] = test system: other Y receptors; conditions: cited from earlier work; for Effects at other Y receptors, in words: ref [15]; for Binding to other Y receptors, in words: ref [23]
[10] = test system: IV NPY cardiovascular response; experiment: BIBO3304 effect on IV NPY, NPY analog and ANG II cardiovascular responses; assay type: in vivo, rat (Sprague Dawley); conditions: for PRE vs POST BIBO3304 pressor response, in words: IV peptide
[11] = cited from earlier work; for Effect on central regulation of feeding behavior, in words: peripheral administration, ref [15], [45]
[12] = test system: sensory neuron-specific receptor (SNSR1); conditions: ref [65], [66]; cited from earlier work; remark: listed apart in the source
[13] = central BIBO3304, summary in Discussion
[14] = ICV BIBO3304, NPY 5 nmol IV, PRE vs POST, n = 7
[15] = NPY 5 nmol IV, change from baseline, mean ± standard error

gamma-melanocyte stimulating hormone [γ-MSH]
SNSR1 activation [1]: ~40 nM | Cardiovascular response (MAP and HR), in words [2]: produced both pressor and cardioaccelerator effects, with no evidence of a baroreceptor-mediated bradycardia; also recorded: produces a marked pressor and tachycardia response | Competition for rat Y1 receptor binding, in words [3]: failed to compete with iodinated PYY for binding to the rat Y1 receptor; also recorded: Neither γ-MSH nor FMRFamide (a model RFamide peptide) competed with iodinated PYY for binding to the rat Y1 receptors | Pressor response after forebrain CVO lesions, in words ([4]; IV, forebrain CVO lesions, ref [42]): attenuation of the IV γ-MSH cardiovascular response | Rightward shift of pressor dose–response curve ([4]; carotid versus femoral artery administration, ref [31]): 10 fold | Mechanism of MAP and HR effects / baroreceptor reflex, in words ([4]; ref [9]–[11], [33]): total inhibition of the baroreceptor reflex; also recorded: MAP and HR effects are due to an increase in preganglionic sympathetic drive, with no contribution of adrenal medullary catecholamine release | Rise in MAP ([5]; mouse models): 38 mmHg | Pressor effect in MC3-R and MC4-R knockout mice, in words ([5]; peripheral administration): these effects can be elicited following peripheral administration of γ-MSH in the MC3-R and MC4-R knockout mice | Effect on N-type VDCC / IBa, in words [6]: does not affect Y1 receptor agonist binding capacity or signaling; also recorded: did not bind to or allosterically regulate the Y1 receptor; also recorded: neither γ-MSH nor γ-MSH6–12 affected VDCC activity; also recorded: did not produce a significant inhibition of IBa relative to control | Reduction of IBa (N-type VDCC barium current) [6]: 3–9%

NC(=O)NCc1ccc(CNC(=O)[C@@H](CCCN=C(N)N)NC(=O)C(c2ccccc2)c2ccccc2)cc1 [BIBO3304]
Binding at NPFF receptors, in words [7]: nanomolar-binding efficacy at NPFF receptors | Attenuation of total γ-MSH pressor response (MAP curve area, height × width) ([8]; ICV BIBO3304, IV γ-MSH, PRE vs POST, n = 7): > 60% | Attenuation of MAP response of γ-MSH or γ-MSH6–12 (either peptide) ([8]; ICV BIBO3304, several IV doses of γ-MSH and γ-MSH6–12, subsequent study): > 50% | Attenuation of pressor responses of γ-MSH and γ-MSH6–12, in words ([8]; IV or ICV BIBO3304, peptide IV): significantly attenuated the pressor responses of γ-MSH and the γ-MSH analog | Reduction in total γ-MSH pressor response ([8]; central BIBO3304, IV γ-MSH, summary in Discussion): 75% | Inhibition of HR response to several IV γ-MSH doses [8, 13]: ~50% | Inhibition of peak MAP response to several IV γ-MSH doses [8, 13]: ~50% | Change in baseline cardiovascular parameters ([8]; central or peripheral BIBO3304 alone, n = 7): no significant changes in any baseline cardiovascular parameters | Effects at other Y receptors, in words [9]: not reported to have significant effects at other Y receptors | Binding to other Y receptors, in words [9]: none of these receptors shows significant binding of BIBO3304 | Area under the MAP response curve, effect of BIBO3304, in words ([10]; ICV BIBO3304, IV NPY agonists 5 nmol): Only the area under the NPY MAP response curve is reduced by drug treatment | Effect on IV NPY cardiovascular response, in words ([10]; ICV BIBO3304, NPY 5 nmol IV): significant decrease in the IV NPY cardiovascular response; also recorded: blood pressure responses of NPY are significantly reduced | Decrease in IV NPY-induced MAP response [10, 14]: > 40% | Decrease in total NPY pressor response (MAP curve area) [10, 14]: > 70% | Effect on γ-MSH6–12 and NPY-CVa MAP responses, in words ([10]; ICV BIBO3304, two graded doses of either peptide IV (Fig. 5a)): produced significant MAP reductions for both doses of either peptide | Effect on (D-Arg25) NPY MAP / total pressor response, in words ([10]; ICV or IV BIBO3304, (D-Arg25) NPY IV): did not change the MAP response of D-Arg25 NPY; also recorded: did not significantly affect the MAP response or total pressor response of a Y1 receptor agonist (D-Arg25) NPY; also recorded: no significant effect on D-Arg25 NPY | Effect on γ-MSH6–12 and NPY-CVa MAP responses, in words (IV BIBO3304) ([10]; IV BIBO3304, two graded doses IV (Fig. 5b)): significant reductions in MAP for both doses of γ-MSH6–12 and NPY-CVa | Effect on IV NPY-CVa cardiovascular activity, in words ([10]; central or peripheral BIBO3304, NPY-CVa IV): IV NPY-CVa cardiovascular activity was sensitive to central or peripheral BIBO3304 administration | Reduction of IV NPY-CVa pressor response ([10]; central or systemic BIBO3304, NPY-CVa 5 or 20 nM doses (so in the source) IV): up to 55% | Effect on central regulation of feeding behavior, in words [11]: affects central regulation of feeding behavior

Des-AA10–17-cyclo-7/21[Cys7,21, Pro34] NPY [NPY-CVa]
Binding to other Y receptors, in words [9]: significant binding to other Y receptors | Increase in MAP ([2]; mean ± standard error): 26 ± 3 mmHg | Pressor activity of NPY-CVa, in words ([4]; ref [26]): significant pressor activity | Orexigenic activity, in words ([11]; ref [23], [26]): without orexigenic activity; also recorded: lacks Y1-like orexigenic activity

angiotensin II [ANG II]
Peak MAP response, POST ICV BIBO3304 ([10]; IV ANG II 5 nmol, POST, mean ± standard error): 54 ± 2 mmHg | Peak MAP response, PRE ICV BIBO3304 ([10]; IV ANG II 5 nmol, PRE, mean ± standard error): 66 ± 6 mmHg | PRE vs POST BIBO3304 pressor response, in words ([10]; ICV or IV BIBO3304): not significantly different at pre and post central BIBO3304 administration | PRE vs POST BIBO3304 pressor response, in words ([10]; ICV or IV BIBO3304, listed as AII): not significantly different

neuropeptide Y [NPY]
Duration of pressor response, in words ([2]; IV NPY 5 nmol compared to γ-MSH, P <0.05, n = 7): lasted significantly longer than that of γ-MSH for a relatively similar change in peak MAP | Cardiovascular response (MAP and HR), in words [2]: during the mid-point of the pressor response the bradycardia reversed to a cardioaccelerator response; also recorded: produces prolonged pressor and HR responses | Increase in MAP ([2]; mean ± standard error): 41.9 ± 4 mmHg | Peak bradycardia response [2, 15]: −53 ± 18 BPM | Peak tachycardia response [2, 15]: 49 ± 14 BPM | Baseline HR ([2]; baseline of the NPY 5 nmol IV group, mean ± standard error): 360 ± 11 BPM | Effect on N-type VDCC / IBa, in words [6]: significant decreases in N-type VDCC activity; also recorded: significantly different from the effects of γ-MSH or γ-MSH6–12 | Reduction of IBa (N-type VDCC barium current) [6]: ~50% | SNSR1 binding, in words [12]: nanomolar NPY binding

FMRFamide
Competition for rat Y1 receptor binding, in words [3]: failed to bind to these receptors; also recorded: Neither γ-MSH nor FMRFamide (a model RFamide peptide) competed with iodinated PYY for binding to the rat Y1 receptors

NC(N)=NCCC[C@@H](NC(=O)C(c1ccccc1)c1ccccc1)C(=O)NCc1ccc(O)cc1 [BIBP3226]
Binding at NPFF receptors, in words [7]: nanomolar-binding efficacy at NPFF receptors | Effects at other Y receptors, in words [9]: not reported to have significant effects at other Y receptors | Effect on central regulation of feeding behavior, in words [11]: affects central regulation of feeding behavior

(D-Arg25) NPY
PRE vs POST BIBO3304 pressor response, in words ([10]; ICV or IV BIBO3304, listed as (D-Arg^25) NPY): not significantly different | PRE vs POST BIBO3304 pressor response, in words ([10]; ICV or IV BIBO3304, listed as D-Arg25 NPY): lack of a significant difference in the PRE and POST cardiovascular responses
